Reference: the supplement of paper PMC10307832

Legend:
Assay in all cases: relative viability (nuclei count vs DMSO), 5 days (fraction); higher = more cells survive
[1] = system: NCI-H2023
In short: (§1)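 Relative viability was taken as the ratio of nuclei in treated wells to nuclei in vehicle wells. Lung cancer cell lines in 1536-well plates received compounds by pin tool one day after seeding, either one drug alone or a fixed anchor-drug dose plus five library-drug doses (not always all listed) in √10 steps. Nuclei were counted on 4× images after 5 days of treatment, and values are medians of duplicate plates.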

[2] = system: NCI-H520
In short: as §1

[3] = system: NCI-H2087
In short: as §1

[4] = system: LCLC-103H
In short: as §1

[5] = system: LU99A
In short: as §1

[6] = system: COR-L 105
In short: as §1

[7] = system: A-427
In short: as §1

[8] = system: NCI-H1437
In short: as §1

[9] = system: SK-LU-1
In short: as §1

[10] = system: ABC-1
In short: as §1

[11] = system: SW 900
In short: as §1

[12] = system: 201T
In short: as §1

[13] = system: NCI-H1666
In short: as §1

[14] = system: SW 1573
In short: as §1

[15] = system: COR-L23
In short: as §1

[16] = system: NCI-H2009
In short: as §1

[17] = system: RERF-LC-KJ
In short: as §1

[18] = system: PC-14
In short: as §1

[19] = system: EPLC-272H
In short: as §1

[20] = system: EMC-BAC-2
In short: as §1

[21] = system: NCI-H3122
In short: as §1

[22] = system: HCC-827
In short: as §1

[23] = system: EKVX
In short: as §1

Work on Nc1cccc2c1CN(C1CCC(=O)NC1=O)C2=O (centres undefined) [Lenalidomide] + COc1cc2c(Oc3ccc(NC(=O)C4(C(=O)Nc5ccc(F)cc5)CC4)cc3F)ccnc2cc1OCCCN1CCOCC1 [Foretinib] (partner 0.25 µM) yielded a relative viability ([1]; first compound 0.253 µM) of 0.89, a relative viability ([1]; first compound 0.8 µM) of 1.19 and a relative viability ([1]; first compound 2.53 µM) of 0.753. The relative viability ([1]; first compound 8 µM) was 0.931, the relative viability ([2]; first compound 0.253 µM) was 0.805 and the relative viability ([2]; first compound 0.8 µM) was 0.627. It also gave a relative viability ([2]; first compound 2.53 µM) of 0.875, a relative viability ([2]; first compound 8 µM) of 0.711 and a relative viability ([3]; first compound 0.253 µM) of 0.801. The relative viability ([3]; first compound 0.8 µM) was 1.17, the relative viability ([3]; first compound 2.53 µM) was 1.17 and the relative viability ([3]; first compound 8 µM) was 1.28. It also gave a relative viability ([4]; first compound 0.253 µM) of 0.761, a relative viability ([4]; first compound 0.8 µM) of 0.806 and a relative viability ([4]; first compound 2.53 µM) of 0.888. It also gave a relative viability ([4]; first compound 8 µM) of 0.682, a relative viability ([5]; first compound 0.253 µM) of 0.831 and a relative viability ([5]; first compound 0.8 µM) of 0.789. For the same compound, the relative viability ([5]; first compound 2.53 µM) was 0.761, the relative viability ([5]; first compound 8 µM) was 0.599 and the relative viability ([6]; first compound 0.253 µM) was 0.855. The relative viability ([6]; first compound 0.8 µM) was 0.822, the relative viability ([6]; first compound 2.53 µM) was 1.12 and the relative viability ([6]; first compound 8 µM) was 1.16. For the same compound, the relative viability ([7]; first compound 0.253 µM) was 1.11, the relative viability ([7]; first compound 0.8 µM) was 0.93 and the relative viability ([7]; first compound 2.53 µM) was 1.13. For the same compound, the relative viability ([7]; first compound 8 µM) was 1.11, the relative viability ([8]; first compound 0.253 µM) was 1.34 and the relative viability ([8]; first compound 0.8 µM) was 1.25. The relative viability ([8]; first compound 2.53 µM) was 1.32, the relative viability ([8]; first compound 8 µM) was 1.46 and the relative viability ([9]; first compound 0.253 µM) was 0.71. For the same compound, the relative viability ([9]; first compound 0.8 µM) was 0.727, the relative viability ([9]; first compound 2.53 µM) was 1.02 and the relative viability ([9]; first compound 8 µM) was 0.802. For the same compound, the relative viability ([10]; first compound 0.253 µM) was 0.977, the relative viability ([10]; first compound 0.8 µM) was 1.19 and the relative viability ([10]; first compound 2.53 µM) was 1.14. For the same compound, the relative viability ([10]; first compound 8 µM) was 0.811, the relative viability ([11]; first compound 0.253 µM) was 0.785 and the relative viability ([11]; first compound 2.53 µM) was 0.879. For the same compound, the relative viability ([11]; first compound 8 µM) was 0.884, the relative viability ([12]; first compound 0.253 µM) was 1.08 and the relative viability ([12]; first compound 2.53 µM) was 1.23. The relative viability ([12]; first compound 8 µM) was 1.13, the relative viability ([13]; first compound 0.253 µM) was 1 and the relative viability ([13]; first compound 2.53 µM) was 1. The relative viability ([13]; first compound 8 µM) was 0.983, the relative viability ([14]; first compound 0.253 µM) was 0.971 and the relative viability ([14]; first compound 0.8 µM) was 1.15. For the same compound, the relative viability ([14]; first compound 2.53 µM) was 0.95, the relative viability ([14]; first compound 8 µM) was 0.877 and the relative viability ([15]; first compound 0.253 µM) was 0.897. It also gave a relative viability ([15]; first compound 0.8 µM) of 0.998, a relative viability ([15]; first compound 2.53 µM) of 1.08 and a relative viability ([15]; first compound 8 µM) of 1.15. For the same compound, the relative viability ([16]; first compound 0.253 µM) was 1.24, the relative viability ([16]; first compound 0.8 µM) was 1.23 and the relative viability ([16]; first compound 2.53 µM) was 1.32. The relative viability ([16]; first compound 8 µM) was 1.22, the relative viability ([17]; first compound 0.253 µM) was 0.891 and the relative viability ([17]; first compound 0.8 µM) was 0.886. The relative viability ([17]; first compound 2.53 µM) was 0.962, the relative viability ([17]; first compound 8 µM) was 0.793 and the relative viability ([18]; first compound 0.253 µM) was 0.945. The relative viability ([18]; first compound 0.8 µM) was 1.02, the relative viability ([18]; first compound 2.53 µM) was 1.01 and the relative viability ([18]; first compound 8 µM) was 0.982. For the same compound, the relative viability ([19]; first compound 0.253 µM) was 0.795, the relative viability ([19]; first compound 0.8 µM) was 0.658 and the relative viability ([19]; first compound 2.53 µM) was 0.681. The relative viability ([19]; first compound 8 µM) was 0.549, the relative viability ([20]; first compound 0.253 µM) was 1 and the relative viability ([20]; first compound 0.8 µM) was 0.967. It also gave a relative viability ([20]; first compound 2.53 µM) of 1.04, a relative viability ([20]; first compound 8 µM) of 0.885 and a relative viability ([21]; first compound 0.253 µM) of 0.98. For the same compound, the relative viability ([21]; first compound 0.8 µM) was 1.04, the relative viability ([21]; first compound 2.53 µM) was 0.915 and the relative viability ([21]; first compound 8 µM) was 1.02. The relative viability ([22]; first compound 0.253 µM) was 1.03, the relative viability ([22]; first compound 0.8 µM) was 1.05 and the relative viability ([22]; first compound 2.53 µM) was 1.01. For the same compound, the relative viability ([22]; first compound 8 µM) was 1.04, the relative viability ([23]; first compound 0.253 µM) was 0.806 and the relative viability ([23]; first compound 0.8 µM) was 0.772. The relative viability ([23]; first compound 2.53 µM) was 0.46 and the relative viability ([23]; first compound 8 µM) was 0.932.
